{"source": "patent US8852928B2", "about": "“LexA-based chemical-inducible gene expression system for use in transgenic animals” (Temasek Life Sciences Laboratory Limited, priority 2007, dated 2014)", "key": {"LexPR transactivator [1]": {"target": "T1, LexPR transactivator (Homo sapiens, UniProt P06401)", "T1 construct": "expressed in transfected cells; host or cells: germline-transgenic zebrafish (Danio rerio) carrying the Ds transposon driver cassette pDs(krt8:LPR-LOP:G4) or derivatives", "T1 sequence (P06401 640-914)": "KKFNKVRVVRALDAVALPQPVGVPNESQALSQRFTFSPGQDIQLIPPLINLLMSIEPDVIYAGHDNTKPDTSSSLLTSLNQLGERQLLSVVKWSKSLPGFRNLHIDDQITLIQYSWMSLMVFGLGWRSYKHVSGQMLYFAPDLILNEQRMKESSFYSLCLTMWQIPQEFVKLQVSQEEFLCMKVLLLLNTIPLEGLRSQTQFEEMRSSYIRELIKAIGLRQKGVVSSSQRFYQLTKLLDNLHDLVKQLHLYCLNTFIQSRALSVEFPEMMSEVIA", "test": "Control of maternal EGFP expression by treating transgenic females", "format": "in vivo, zebrafish", "conditions": "1 μM for 12 hours before crossing"}, "LexPR transactivator [2]": {"target": "T1, LexPR transactivator", "test": "Inducible expression of EGFP-KrasV12 in transgenic zebrafish", "format": "in vivo", "conditions": "10 μM at 10 hpf onwards", "description": "Transgenic zebrafish line harboring insertion of the binary driver construct Ds(krt8:LPR-LOP:EGFP-Kras^V12) containing EGFP-Kras^V12 under control of the LexOP, F2 (FIG. 12a-12e, FIG. 12g). FIG. 12a: 24 hpf, no induction. […] FIG. 12f: Transgenic fish harboring the unmodified driver-reporter construct pDs(krt8:LPR-LOP:G4) containing EGFP gene under control of the LexOP."}, "LexPR transactivator [3]": {"target": "T1, LexPR transactivator", "test": "Time required to switch off EGFP reporter expression after mifepristone withdrawal", "format": "in vivo, zebrafish", "set-up": "key to Reporter expression, RU486 incubation / Reporter expression after RU486 withdrawal / Reporter expression, continuous induction (time of RU486 incubation): +: Fluorescence signal is similar to the control.; ±: Fluorescence signal is obviously weaker that in control.; −: No EGFP fluorescence (except autofluorescence)observed using the fluorescent stereomicroscope", "text": "To avoid confusion, the corresponding developmental times are indicated. A Nikon SMZ1600 fluorescent stereomicroscope was used for rough estimation of the EGFP fluorescence."}}, "note": "Entries after “also recorded” stand apart in the source; their conditions may differ.", "data": [{"smiles": "CC#C[C@]1(O)CC[C@H]2[C@@H]3CCC4=CC(=O)CCC4=C3[C@@H](c3ccc(N(C)C)cc3)C[C@@]21C", "note": "[mifepristone]", "values": [{"measurement": "Maternal EGFP expression in offspring of treated transgenic F2 females", "setting": "LexPR transactivator [1]", "value": "produced GFP-positive eggs; also recorded: All the F3 embryos showed maternal EGFP expression"}, {"measurement": "Effect of induced EGFP-KrasV12 expression on F2 embryos", "setting": "LexPR transactivator [2]", "value": "embryo development was severely affected"}, {"measurement": "Reporter expression, RU486 incubation", "setting": "LexPR transactivator [3]; 1 nM, 1 hour RU486 incubation - withdrawal, at 1 h incubation, 37hpf", "value": "−"}, {"measurement": "Reporter expression after RU486 withdrawal", "setting": "LexPR transactivator [3]; 1 nM, 1 hour RU486 incubation, 12 h after withdrawal, 49hpf", "value": "−"}, {"measurement": "Reporter expression after RU486 withdrawal", "setting": "LexPR transactivator [3]; 1 nM, 1 hour RU486 incubation, 24 h after withdrawal, 61hpf", "value": "−"}, {"measurement": "Reporter expression after RU486 withdrawal", "setting": "LexPR transactivator [3]; 1 nM, 1 hour RU486 incubation, 48 h after withdrawal, 85hpf", "value": "−"}, {"measurement": "Reporter expression after RU486 withdrawal", "setting": "LexPR transactivator [3]; 1 nM, 1 hour RU486 incubation, 72 h after withdrawal, 109hpf", "value": "−"}, {"measurement": "Reporter expression after RU486 withdrawal", "setting": "LexPR transactivator [3]; 1 nM, 1 hour RU486 incubation, 96 h after withdrawal, 133hpf", "value": "−"}, {"measurement": "Reporter expression after RU486 withdrawal", "setting": "LexPR transactivator [3]; 1 nM, 1 hour RU486 incubation, 120 h after withdrawal, 157hpf", "value": "−"}, {"measurement": "Reporter expression after RU486 withdrawal", "setting": "LexPR transactivator [3]; 1 nM, 1 hour RU486 incubation, 144 h after withdrawal, 181hpf", "value": "−"}, {"measurement": "Reporter expression, RU486 incubation", "setting": "LexPR transactivator [3]; 1 nM, 12 hours RU486 incubation - withdrawal, at 12 h incubation, 48hpf", "value": "−"}, {"measurement": "Reporter expression after RU486 withdrawal", "setting": "LexPR transactivator [3]; 1 nM, 12 hours RU486 incubation, 12 h after withdrawal, 60hpf", "value": "±"}, {"measurement": "Reporter expression after RU486 withdrawal", "setting": "LexPR transactivator [3]; 1 nM, 12 hours RU486 incubation, 24 h after withdrawal, 72hpf", "value": "−"}, {"measurement": "Reporter expression after RU486 withdrawal", "setting": "LexPR transactivator [3]; 1 nM, 12 hours RU486 incubation, 48 h after withdrawal, 96hpf", "value": "−"}, {"measurement": "Reporter expression after RU486 withdrawal", "setting": "LexPR transactivator [3]; 1 nM, 12 hours RU486 incubation, 72 h after withdrawal, 120hpf", "value": "−"}, {"measurement": "Reporter expression after RU486 withdrawal", "setting": "LexPR transactivator [3]; 1 nM, 12 hours RU486 incubation, 96 h after withdrawal, 144hpf", "value": "−"}, {"measurement": "Reporter expression after RU486 withdrawal", "setting": "LexPR transactivator [3]; 1 nM, 12 hours RU486 incubation, 120 h after withdrawal, 168hpf", "value": "−"}, {"measurement": "Reporter expression after RU486 withdrawal", "setting": "LexPR transactivator [3]; 1 nM, 12 hours RU486 incubation, 144 h after withdrawal, 192hpf", "value": "−"}, {"measurement": "Minimal time after RU486 withdrawal to turn off the reporter expression", "setting": "LexPR transactivator [3]; 1 nM, 12 hours induction", "value": 1, "unit": "days"}, {"measurement": "Reporter expression, continuous induction (time of RU486 incubation)", "setting": "LexPR transactivator [3]; 1 nM, 24-156 h incubation, 60-192 hpf", "value": "±"}, {"measurement": "Reporter expression, continuous induction (time of RU486 incubation)", "setting": "LexPR transactivator [3]; 1 nM, 1 h incubation", "value": "−"}, {"measurement": "Reporter expression, continuous induction (time of RU486 incubation)", "setting": "LexPR transactivator [3]; 1 nM, 12 h incubation", "value": "−"}, {"measurement": "Reporter expression, continuous induction (time of RU486 incubation)", "setting": "LexPR transactivator [3]; 1 nM, 13 h incubation, 49hpf", "value": "−"}, {"measurement": "Reporter expression, continuous induction (time of RU486 incubation)", "setting": "LexPR transactivator [3]; 1 nM, 24 h incubation, 60hpf", "value": "±"}, {"measurement": "Reporter expression, RU486 incubation", "setting": "LexPR transactivator [3]; 10 nM, 1 hour RU486 incubation - withdrawal, at 1 h incubation, 37hpf", "value": "−"}, {"measurement": "Reporter expression after RU486 withdrawal", "setting": "LexPR transactivator [3]; 10 nM, 1 hour RU486 incubation, 12 h after withdrawal, 49hpf", "value": "±"}, {"measurement": "Reporter expression after RU486 withdrawal", "setting": "LexPR transactivator [3]; 10 nM, 1 hour RU486 incubation, 24 h after withdrawal, 61hpf", "value": "−"}, {"measurement": "Reporter expression after RU486 withdrawal", "setting": "LexPR transactivator [3]; 10 nM, 1 hour RU486 incubation, 48 h after withdrawal, 85hpf", "value": "−"}, {"measurement": "Reporter expression after RU486 withdrawal", "setting": "LexPR transactivator [3]; 10 nM, 1 hour RU486 incubation, 72 h after withdrawal, 109hpf", "value": "−"}, {"measurement": "Reporter expression after RU486 withdrawal", "setting": "LexPR transactivator [3]; 10 nM, 1 hour RU486 incubation, 96 h after withdrawal, 133hpf", "value": "−"}, {"measurement": "Reporter expression after RU486 withdrawal", "setting": "LexPR transactivator [3]; 10 nM, 1 hour RU486 incubation, 120 h after withdrawal, 157hpf", "value": "−"}, {"measurement": "Reporter expression after RU486 withdrawal", "setting": "LexPR transactivator [3]; 10 nM, 1 hour RU486 incubation, 144 h after withdrawal, 181hpf", "value": "−"}, {"measurement": "Minimal time after RU486 withdrawal to turn off the reporter expression", "setting": "LexPR transactivator [3]; 10 nM, 1 hour induction", "value": 1, "unit": "days"}, {"measurement": "Reporter expression, RU486 incubation", "setting": "LexPR transactivator [3]; 10 nM, 12 hours RU486 incubation - withdrawal, at 12 h incubation, 48hpf", "value": "±"}, {"measurement": "Reporter expression after RU486 withdrawal", "setting": "LexPR transactivator [3]; 10 nM, 12 hours RU486 incubation, 12 h after withdrawal, 60hpf", "value": "+"}, {"measurement": "Reporter expression after RU486 withdrawal", "setting": "LexPR transactivator [3]; 10 nM, 12 hours RU486 incubation, 24 h after withdrawal, 72hpf", "value": "±"}, {"measurement": "Reporter expression after RU486 withdrawal", "setting": "LexPR transactivator [3]; 10 nM, 12 hours RU486 incubation, 48 h after withdrawal, 96hpf", "value": "−"}, {"measurement": "Reporter expression after RU486 withdrawal", "setting": "LexPR transactivator [3]; 10 nM, 12 hours RU486 incubation, 72 h after withdrawal, 120hpf", "value": "−"}, {"measurement": "Reporter expression after RU486 withdrawal", "setting": "LexPR transactivator [3]; 10 nM, 12 hours RU486 incubation, 96 h after withdrawal, 144hpf", "value": "−"}, {"measurement": "Reporter expression after RU486 withdrawal", "setting": "LexPR transactivator [3]; 10 nM, 12 hours RU486 incubation, 120 h after withdrawal, 168hpf", "value": "−"}, {"measurement": "Reporter expression after RU486 withdrawal", "setting": "LexPR transactivator [3]; 10 nM, 12 hours RU486 incubation, 144 h after withdrawal, 192hpf", "value": "−"}, {"measurement": "Minimal time after RU486 withdrawal to turn off the reporter expression", "setting": "LexPR transactivator [3]; 10 nM, 12 hours induction", "value": 2, "unit": "days"}, {"measurement": "Reporter expression, continuous induction (time of RU486 incubation)", "setting": "LexPR transactivator [3]; 10 nM, 24-156 h incubation, 60-192 hpf", "value": "+"}, {"measurement": "Reporter expression, continuous induction (time of RU486 incubation)", "setting": "LexPR transactivator [3]; 10 nM, 1 h incubation", "value": "−"}, {"measurement": "Reporter expression, continuous induction (time of RU486 incubation)", "setting": "LexPR transactivator [3]; 10 nM, 12 h incubation", "value": "±"}, {"measurement": "Reporter expression, continuous induction (time of RU486 incubation)", "setting": "LexPR transactivator [3]; 10 nM, 13 h incubation, 49hpf", "value": "±"}, {"measurement": "Reporter expression, continuous induction (time of RU486 incubation)", "setting": "LexPR transactivator [3]; 10 nM, 24 h incubation, 60hpf", "value": "+"}, {"measurement": "Reporter expression, RU486 incubation", "setting": "LexPR transactivator [3]; 100 nM, 1 hour RU486 incubation - withdrawal, at 1 h incubation, 37hpf", "value": "−"}, {"measurement": "Reporter expression after RU486 withdrawal", "setting": "LexPR transactivator [3]; 100 nM, 1 hour RU486 incubation, 12 h after withdrawal, 49hpf", "value": "+"}, {"measurement": "Reporter expression after RU486 withdrawal", "setting": "LexPR transactivator [3]; 100 nM, 1 hour RU486 incubation, 24 h after withdrawal, 61hpf", "value": "+"}, {"measurement": "Reporter expression after RU486 withdrawal", "setting": "LexPR transactivator [3]; 100 nM, 1 hour RU486 incubation, 48 h after withdrawal, 85hpf", "value": "−"}]}]}
